Test results: patent US20090191137A1, “Method and Material for Controlling or Eliminating Potentially Harmful, Contaminating or Nuisance Micro-Organisms or Cells” (priority 2007, published 2009)

Test system: algae (Chlamydomonas)
Assay: NM7O added to a suspension of algae (algaecide test)
Type: cell-based
Settings: algae 1×10^6 cells/ml in tubes
From the text: The color change can serve as a valuable indicator of activity, as untreated NM7O remains suspended and violet colored.
This may be due to the requirement of direct contact between the product and the algae.

O=S(=O)([O-])[O-].[Cu+2] [copper sulfate]
effect on algal suspension (appearance of the solution): the solution turned blue | microscopic evaluation of the sediment (appearance of treated cells): appeared intact with full cellular contents
